Measurements published in ChEMBL document CHEMBL5506048, “Modular Biomimetic Strategy Enables Discovery and SAR Exploration of Oxime Macrocycles as Influenza A Virus (H1N1) Inhibitors” (J Med Chem, 2024).
Active and inactive are the calls of the source. The rule behind the calls is not given here.

Columns and labels:
Calu-3 = test: Cytotoxicity against human Calu-3 cells assessed as cell viability measured after 3 days by CellTiter-Lumi Steady Plus Luminescent Cell Viability Assay Kit; format: functional; details: Calu-3, 72 h, time 3 day
Influenza A virus [1] = test: Antiviral activity against Influenza virus H1N1 A/Puerto Rico/8/34 (A/PR/8/34) infected in human Calu-3 cells assessed as viral RNA at CC50 concentration for human Calu-3 cells measured after 3 days by one-time real time PCR assay; format: functional, organism-based; details: time 3.0 day
Influenza A virus [2] = test: Antiviral activity against Influenza virus H1N1 A/Puerto Rico/8/34 (A/PR/8/34) infected in human Calu-3 cells assessed as viral RNA measured after 3 days by one-time real time PCR assay; format: functional, organism-based
[3] = Selectivity index, ratio of CC50 for human Calu-3 cells to EC50 for antiviral activity against Influenza virus HINI A/Puerto Rico/8/34 (A/PR/8/34); format: toxicity; details: read-out: Selectivity Index
Influenza A virus [4] = test: Antiviral activity against HIV pseudotyped H1N1 HA infected in human 293T cells assessed as inhibition of viral entry into cells by measuring intensity of chemiluminescence measured after 3 days by Bright-Glo luciferase assay; format: functional, organism-based; details: HEK293T, time 3.0 day
Influenza A virus [5] = test: Antiviral activity against HIV pseudotyped H5N1 HA infected in human 293T cells assessed as inhibition of viral entry into cells by measuring intensity of chemiluminescence measured after 3 days by Bright-Glo luciferase assay; format: functional, organism-based; details: HEK293T, time 3.0 day
Ebolavirus = test: Antiviral activity against HIV pseudotyped EBOV GP infected in human 293T cells assessed as inhibition of viral entry into cells by measuring intensity of chemiluminescence measured after 3 days by Bright-Glo luciferase assay; format: functional, organism-based; details: HEK293T, time 3.0 day
Influenza A virus [6] = test: Antiviral activity against Influenza virus HIN1 (A/California/07/2009 pdm09) infected in human Calu-3 cells assessed as viral RNA measured after 3 days by one-time real time PCR assay; format: functional, organism-based; details: Calu-3, 72 h
Influenza A virus [7] = test: Antiviral activity against Influenza virus H3N2 (A/Hong Kong/8/68) infected in human Calu-3 cells assessed as viral RNA measured after 3 days by one-time real time PCR assay; format: functional, organism-based; details: Calu-3, 72 h
Influenza B virus = test: Antiviral activity against Influenza virus Flu B (B/Taiwan/2/62) infected in human Calu-3 cells assessed as viral RNA measured after 3 days by one-time real time PCR assay; format: functional, organism-based; details: B/Taiwan/2/62, Calu-3, 72 h

SMILES	CC50 (Calu-3) [µM]	Activity (Influenza A virus [1])	EC50 (Influenza A virus [2]; Calu-3, 72 h) [nM]	EC90 (Influenza A virus [2]; Calu-3, 72 h, time 3 day) [nM]	selectivity ratio [3]	other results
CCC(CC)Oc1ccc(/C=C2\Cc3cc(C(F)(F)F)ccc3C(=O)NCC(C)(C)/C(=N/OC)CCCCOC2=O)cc1	> 100	inactive				
C=C1Cc2cc(C(F)(F)F)ccc2C(=O)NCC(C)(C)/C(=N/OC)CCC(C(=O)O)OC1=O (stereo unspecified)	> 100	inactive				
C=C1Cc2cc(C(F)(F)F)ccc2C(=O)NCC(C)(C)/C(=N/OC(C)C)CCC(C)OC1=O (stereo unspecified)	36.6	inactive				
C=C1Cc2cc(C(F)(F)F)ccc2C(=O)NCC(C)(C)/C(=N/OC(CC)CC)CCC(C)OC1=O (stereo unspecified)	31.9	inactive				
C=C1Cc2cc(C(F)(F)F)ccc2C(=O)NCC(C)(C)C(=O)CCCCOC1=O	> 100	inactive				
C=C1Cc2cc(C(F)(F)F)ccc2C(=O)NCC(C)(C)/C(=N/OC)CC[C@@H](C)OC1=O	26.5		1470	> 100000	18	
C=C1Cc2cc(C(F)(F)F)ccc2C(=O)NCC(C)(C)/C(=N/OC)CCCCOC1=O	> 100		2300	46500	> 43	
C=C1Cc2cc(C(F)(F)F)ccc2C(=O)NCC2(CC2)/C(=N/OC)CCCOC1=O	> 100		247	1230	> 404	
CO/N=C1\CCCCOC(=O)/C(=C/c2ccc(N3CCOCC3)cc2)Cc2cc(C(F)(F)F)ccc2C(=O)NCC1(C)C	> 100	inactive				
C=C1Cc2cc(C(F)(F)F)ccc2C(=O)NCC(C)(C)/C(=N/OC)CCC(c2ccc(F)cc2)OC1=O (stereo unspecified)	27.3	inactive				
C=C1Cc2cc(C(F)(F)F)ccc2C(=O)NCC(C)(C)/C(=N/OC)CCC(CNCCO)OC1=O (stereo unspecified)	> 100	inactive				
C=C1Cc2cc(C(F)(F)F)ccc2C(=O)NCC(C)(C)/C(=N/OCC(F)(F)F)CCCOC1=O	> 100		428	1870	> 233	
C=C1Cc2cc(C(F)(F)F)ccc2C(=O)NCC(C)(C)/C(=N/OC)CCC(CN2CCOCC2)OC1=O (stereo unspecified)	> 100	inactive				
C=C1Cc2cc(C(F)(F)F)ccc2C(=O)NCC(C)(C)/C(=N/OC)CCCOC1=O	> 100		441	560	> 226	
C=C1Cc2ccc(C(F)(F)F)cc2C(=O)NCC(C)(C)/C(=N/OC)CCCOC1=O	73.6		264	1050	278	
C=C1Cc2cc(C(F)(F)F)ccc2C(=O)NCC(C)(C)/C(=N/OC)CCC(CO)OC1=O (stereo unspecified)	> 100		20200	> 100000	> 4	
C=C1Cc2cc(NC(C)=O)ccc2C(=O)NCC(C)(C)/C(=N/OC)CCCOC1=O	> 100		2690	5060	> 37	
CO/N=C1\CCCOC(=O)C(C)Cc2cc(C(F)(F)F)ccc2C(=O)NCC1(C)C (stereo unspecified)	> 100		2740	> 100000	> 36	
C=C(Cc1cc(C(F)(F)F)ccc1C(=O)NCC(C)(C)/C(CCCO)=N/OC)C(=O)O	> 100	inactive				

SMILES	CC50 (Calu-3) [µM]	Activity (Influenza A virus [1])	EC50 (Influenza A virus [2]; Calu-3, 72 h) [nM]	EC90 (Influenza A virus [2]; Calu-3, 72 h, time 3 day) [nM]	selectivity ratio [3]	other results
C=C1Cc2cc(N3CCOCC3)ccc2C(=O)NCC(C)(C)/C(=N/OC)CCCOC1=O	> 100		17900		> 8	EC90 (Influenza A virus [2]; time 3.0 day): inactive
C=C1Cc2cc(C(F)(F)F)ccc2C(=O)NCC(C)(C)/C(=N/OC)CCOC1=O	> 100	inactive				
CO/N=C1\CCCCOC(=O)/C(=C/c2ccc(F)cc2)Cc2cc(C(F)(F)F)ccc2C(=O)NCC1(C)C	> 100	inactive				
C=C1Cc2cc(C(F)(F)F)ccc2C(=O)NCC2(CCC2)/C(=N/OC)CC[C@H](C)OC1=O	67.3		220	680	305	
C=C1Cc2cc(C(F)(F)F)ccc2C(=O)NCC(C)(C)/C(=N/OC)CC[C@H](C)OC1=O	90.4		13	235	6950	Activity (Influenza A virus [4]): Dose-Dependent Effect; Activity (Influenza A virus [5]): inactive; Activity (Ebolavirus): inactive; EC50 (Influenza A virus [6]): 48 nM; EC50 (Influenza A virus [7]): > 50 µM; EC50 (Influenza B virus): > 50 µM
C=C1Cc2cc(C(F)(F)F)ccc2C(=O)NCC(C)(C)/C(=N/O)CCCCOC1=O	> 100		57300		> 1.7	EC90 (Influenza A virus [2]; time 3.0 day): inactive
C=C1Cc2cc(C(F)(F)F)ccc2C(=O)NCC(C)(C)/C(=N/OC)CCCCCCOC1=O	15.6	inactive				
C=C1Cc2cc(C(F)(F)F)ccc2C(=O)NCC(C)(C)/C(=N/OC)CCC(C2CC2)OC1=O (stereo unspecified)	42.9	inactive				
C=C1Cc2cc(C(F)(F)F)ccc2C(=O)NCC(C)(C)/C(=N/OC)CCCNC1=O	> 100		657	1390	> 152	
CO/N=C1\CCCCOC(=O)C(CSCCC(=O)O)Cc2cc(C(F)(F)F)ccc2C(=O)NCC1(C)C (stereo unspecified)	> 100	inactive				
C=C1Cc2cc(C(F)(F)F)ccc2C(=O)NCC(C)(C)/C(=N/OC)CCC(CC)OC1=O (stereo unspecified)	42.4	inactive				
C=C1Cc2cc(OC)ccc2C(=O)NCC(C)(C)/C(=N/OC)CCCOC1=O	> 100		1050	3550	> 95	
C=C1Cc2cc(C(F)(F)F)ccc2C(=O)NCC(C)(C)/C(=N/OC)CCCCCOC1=O	40.7	inactive				
C=C1Cc2cc(C(F)(F)F)ccc2C(=O)NCC(C)(C)/C(=N/OCC23C[C@H]4C[C@@H](C2)C[C@@H](C3)C4)CCC(C)OC1=O (stereo partly specified)	47	inactive				
C=C1Cc2cc(F)ccc2C(=O)NCC(C)(C)/C(=N/OC)CCCOC1=O	> 100		1650	1980	> 60	
C=C1Cc2ccccc2C(=O)NCC(C)(C)/C(=N/OC)CCCOC1=O	> 100		985	18300	> 101	
C=C1Cc2cc(C(F)(F)F)ccc2C(=O)NCC(C)(C)/C(=N/OC)CCC(C)OC1=O (stereo unspecified)	> 100		96	823	> 1040	
C=C1Cc2cc(C(F)(F)F)ccc2C(=O)NCC(C)/C(=N/OC)CCCOC1=O (stereo unspecified)	> 100	inactive				
